Measured values reported in patent publication US9751861B2, “N1-(3,3,3-trifluoro-2-hydroxo-2-methylpropionyl)-piperidine derivatives as inhibitors of pyruvate dehydrogenase kinase” (MERCK PATENT GMBH, priority 2013, dated 2017).
pIC50, pKd: −log10 of the molar value.

Assays:
PDH-Elalpha (pSer300) = experiment: Cellular immunofluorescence assay in HEK293T cells; format: cell-based; settings: Homo sapiens, HEK-293T, 5 hours incubation, anti-PDH-E1alpha pSer300 immunofluorescence, read-out: IC50 (cell data)
In short: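 HEK293T cells were exposed to compound for 5 hours, then fixed, permeabilised and immunostained for PDH-Elalpha pSer300 with Hoechst counterstain, read by laser scanning cytometry. Percent effect was normalized to a pharmacological inhibitor control and fitted to dose-response curves.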

PDHK2 = target: T1, PDHK2 (Homo sapiens, UniProt Q15119); experiment: Biochemical activity testing of PDHK2: PDC inactivation assay; settings: human rec PDHK2, PDC from porcine heart, ATP 5 μM; read-out: IC50 PDHK2 (enzyme assay)
T1 construct: purchased Carna Bioscience
In short: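 Human recombinant PDHK2 (137 nM final) preincubated 30 min at RT with porcine heart PDC (20 mU/ml) and compound in pH 7.0 phosphate buffer, then phosphorylated with 5 μM ATP for 30 min at 37 °C. Residual PDC activity read as NADH fluorescence increase (Ex 340/Em 450) over 45 min; inhibitor-free reaction as full value, 3 mM DCA as zero, IC50 derived.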

human PDHK2 (12-407) = target: T2, human PDHK2 (12-407) (Homo sapiens, UniProt Q15119); experiment: Isothermal titration calorimetry (ITC) binding; settings: 30° C., pH 7.5
T2 construct: The human PDHK2 (12-407) was produced in E. coli; His-tag (cleaved yes); made in house; host or cells: E. coli
In short: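 Untagged PDHK2 (12-407) from E. coli at 50 μM titrated into 5 μM compound at 30° C in pH 7.5 HEPES/KCl/MgCl2/phosphate buffer, ≤1% DMSO. One-site fit gave KA, ΔH^obs and N after heat-of-dilution correction; protein concentration referenced to a standard inhibitor and compound concentration adjusted to 1:1 stoichiometry.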

Row | Structure (SMILES) | pIC50 (PDH-Elalpha (pSer300)) | pIC50 (PDHK2) | pKd (human PDHK2 (12-407))
1 | Cc1cc(-n2nccc2C2CCN(C(=O)[C@@](C)(O)C(F)(F)F)CC2)no1 [Compound A115, (R)-3,3,3-Trifluoro-2-hydroxy-2-methyl-1-{4-[2-(5-methyl-isoxazol-3-yl)-2H-pyrazol-3-yl]-piperidin-1-yl}-propan-1-one] | 4.30 to 5.52 | 5.52 to 6.52 | > 6.52
2 | C[C@@](O)(C(=O)N1CCC(c2ccnn2C2CCOCC2)CC1)C(F)(F)F [Compound A116, (R)-3,3,3-Trifluoro-2-hydroxy-2-methyl-1-{4-[2-(tetrahydro-pyran-4-yl)-2H-pyrazol-3-yl]-piperidin-1-yl}-propan-1-one] | 4.30 to 5.52 | 5.52 to 6.52 | 5.52 to 6.52
3 | C[C@@](O)(C(=O)N1CCC(c2ccnn2-c2nc3ccccc3s2)CC1)C(F)(F)F [Compound A117, (R)-1-[4-(2-Benzothiazol-2-yl-2H-pyrazol-3-yl)-piperidin-1-yl]-3,3,3-trifluoro-2-hydroxy-2-methyl-propan-1-one] | 4.30 to 5.52 | 5.52 to 6.52 | > 6.52
4 | C[C@@H]1CN(C(=O)[C@@](C)(O)C(F)(F)F)CC[C@@H]1c1ccnn1-c1ccc(F)cn1 [Compound A118, (R)-3,3,3-Trifluoro-1-{(3S,4S)-4-[2-(5-fluoro-pyridin-2-yl)-2H-pyrazol-3-yl]-3-methyl-piperidin-1-yl}-2-hydroxy-2-methyl-propan-1-one] | 5.52 to 6.52 | > 6.52 | > 6.52
5 | C[C@@H]1CN(C(=O)[C@@](C)(O)C(F)(F)F)CC[C@@H]1c1ccnn1-c1ccc(Cl)cc1 [Compound A119, (R)-1-{(3S,4S)-4-[2-(4-Chloro-phenyl)-2H-pyrazol-3-yl]-3-methyl-piperidin-1-yl}-3,3,3-trifluoro-2-hydroxy-2-methyl-propan-1-one] | > 6.52 | > 6.52 | > 6.52
6 | C[C@@H]1CN(C(=O)[C@@](C)(O)C(F)(F)F)CC[C@@H]1c1ccnn1[C@H]1CC[C@@H](O)CC1 [Compound A120, (R)-3,3,3-Trifluoro-2-hydroxy-1-{(3S,4S)-4-[2-(4-hydroxy-cyclohexyl)-2H-pyrazol-3-yl]-3-methyl-piperidin-1-yl}-2-methyl-propan-1-one] | 5.52 to 6.52 | > 6.52 | > 6.52
7 | C[C@@H]1CN(C(=O)[C@@](C)(O)C(F)(F)F)CC[C@@H]1c1ccnn1[C@H]1CC[C@H](O)CC1 [Compound A121, (R)-3,3,3-Trifluoro-2-hydroxy-1-{(3S,4S)-4-[2-(4-hydroxy-cyclohexyl)-2H-pyrazol-3-yl]-3-methyl-piperidin-1-yl}-2-methyl-propan-1-one] | 5.52 to 6.52 | > 6.52 | > 6.52
8 | C[C@@](O)(C(=O)N1CCC(c2cncn2-c2ccc(F)cc2)CC1)C(F)(F)F [Compound A124, (R)-3,3,3-Trifluoro-1-{4-[3-(4-fluoro-phenyl)-3H-imidazol-4-yl]-piperidin-1-yl}-2-hydroxy-2-methyl-propan-1-one] | 5.52 to 6.52 | 5.52 to 6.52 | > 6.52
9 | C[C@@](O)(C(=O)N1CCC(c2cncn2-c2ccc(Cl)cc2)CC1)C(F)(F)F [Compound A125, (R)-1-{4-[3-(4-Chloro-phenyl)-3H-imidazol-4-yl]-piperidin-1-yl}-3,3,3-trifluoro-2-hydroxy-2-methyl-propan-1-one] | 5.52 to 6.52 | 5.52 to 6.52 | > 6.52
10 | C[C@@](O)(C(=O)N1CCC(c2cncn2-c2ccc(Cl)cc2F)CC1)C(F)(F)F [Compound A126, (R)-1-{4-[3-(4-Chloro-2-fluoro-phenyl)-3H-imidazol-4-yl]-piperidin-1-yl}-3,3,3-trifluoro-2-hydroxy-2-methyl-propan-1-one] | 5.52 to 6.52 | > 6.52 | > 6.52
11 | C[C@@](O)(C(=O)N1CCC(c2cncn2-c2ccc(C(F)(F)F)cc2)CC1)C(F)(F)F [Compound A127, (R)-3,3,3-Trifluoro-2-hydroxy-2-methyl-1-{4-[3-(4-trifluoromethyl-phenyl)-3H-imidazol-4-yl]-piperidin-1-yl}-propan-1-one] | 5.52 to 6.52 | 5.52 to 6.52 | > 6.52
12 | C[C@@](O)(C(=O)N1CCC(c2conc2-c2ccccc2)CC1)C(F)(F)F [Compound A128, (R)-3,3,3-Trifluoro-2-hydroxy-2-methyl-1-[4-(3-phenyl-isoxazol-4-yl)-piperidin-1-yl]-propan-1-one] | 4.30 to 5.52 | 5.52 to 6.52 | > 6.52
13 | C[C@@](O)(C(=O)N1CCC(c2conc2-c2ccc(F)cc2)CC1)C(F)(F)F [Compound A129, (R)-3,3,3-Trifluoro-1-{^4-[3-(4-fluoro-phenyl)-isoxazol-4-yl]-piperidin-1-yl}-2-hydroxy-2-methyl-propan-1-one] | 4.30 to 5.52 | 5.52 to 6.52 | > 6.52
14 | C[C@@](O)(C(=O)N1CCC(c2cncn2-c2ccc(F)cc2F)CC1)C(F)(F)F [Compound A130, (R)-1-{4-[3-(2,4-Difluoro-phenyl)-3H-imidazol-4-yl]-piperidin-1-yl}-3,3,3-trifluoro-2-hydroxy-2-methyl-propan-1-one] | 5.52 to 6.52 | 5.52 to 6.52 | > 6.52
15 | COc1ccc(-n2cncc2C2CCN(C(=O)[C@@](C)(O)C(F)(F)F)CC2)cc1 [Compound A131, (R)-3,3,3-Trifluoro-2-hydroxy-1-{4-[3-(4-methoxy-phenyl)-3 H-imidazol-4-yl]-piperidin-1-yl}-2-methyl-propan-1-one] | 5.52 to 6.52 | 5.52 to 6.52 | > 6.52
